According to patent US20060014801A1, “Prevention and treatment of cognitive impairment using (R)-(-)-5-methyl-1-nicotynoyl-2-pyrazoline (MNP) and analogs” (The Johns Hopkins University, priority 2002, published 2006):
Like-named read-outs stand apart in the source and are kept apart here.

Experiments:
rat = experiment: Other behavioral measures in the rat; assay type: in vivo; settings: 10 mg/kg/day
[1] = Pharmacokinetics of MNP in the rat (plasma, LC/MS/MS); assay type: in vivo, male Sprague-Dawley rats; settings: for concentration at 5 min / concentration at 15 min / concentration at 30 min / concentration at 60 min / concentration at 120 min / concentration at 180 min / concentration at 240 min / concentration at 480 min / concentration at 720 min / concentration at 1440 min: mean ± s.e.m., 3 rats, read-out: MNP plasma levels
Description: Pharmacokinetic experiments were conducted. MNP was dissolved in saline solution (0.9% NaCl) and administered to male Sprague-Dawley rats (weighing 250-315 grams) with vascular catheters surgically placed in both jugular veins (Charles River, Wilmington, Mass.). The catheter on the left jugular vein was used for intravenous infusion of 5 mg/kg MNP (in the animals that received the i.v. dosing), while the catheter on the right jugular vein was used for blood sample collection. Oral doses of MNP (50 and 200 mg/kg) were administered by oral gavage. […] The samples were collected in heparin-coated microtainers, spun down in a microcentrifuge (14,000 rpm for 7 minutes) to separate out the blood plasma and frozen until analyzed. Plasma levels were quantitated by LC/MS/MS analysis (Applied Biosystems/MDS SCIEX API 3000).
The pharmacokinetic parameters Cmax, tmax, area-under-the-curve (AUC), clearance, and half-life (t1/2) were calculated for oral doses of MNP (50 and 200 mg/kg) and are described in Table II. These parameters are compared to the intravenous dose (5 mg/kg) to determine the oral bioavailability (Foral) of MNP in the rat. […] The roughly 30-minute terminal half-life calculated for the intravenous dose of MNP (5 mg/kg) was similar to previously reported data (Umemura et al., Stroke, 1996; 27:1624-1628).

[2] = male, Sprague-Dawley, plasma, intravenous, 5 mg/kg i.v.
[3] = male, Sprague-Dawley, plasma, iv, 5 mg/kg i.v., approximate value
[4] = male, Sprague-Dawley, plasma, oral, 50 mg/kg p.o.
[5] = male, Sprague-Dawley, plasma, oral, 200 mg/kg p.o.
[6] = male, Sprague-Dawley, plasma, po, 50 mg/kg p.o., approximate value
[7] = male, Sprague-Dawley, plasma, po, 200 mg/kg p.o., approximate value

C[C@@H]1CC=NN1C(=O)c1cccnc1 [MNP, (R)-(−)-5-methyl-1-nicotinoyl-2-pyrazoline]
Efficacy in other behavioral measures in the rat (rat): efficacious | Time of secondary plasma peak ([1]; 50 mg/kg oral dose): about 8 hours | ˜Clearance ([1]; 50 mg/kg p.o., approximate value, Clearance = Dose/AUC): ~4.8 mL/min | Plasma levels at 24 hours post-administration ([1]; 200 mg/kg oral dose): significant plasma levels | ˜Clearance ([1]; 200 mg/kg p.o., approximate value, Clearance = Dose/AUC): ~7.8 mL/min | Oral bioavailability (in words) ([1]; based on AUC and Foral for both oral doses (50 and 200 mg/kg)): highly bioavailable | half-life ([1]; male, Sprague-Dawley, plasma, 5 mg/kg intravenous dose, read-out: Terminal half-life): ~30 min | concentration at 5 min [1, 2]: 6550 ± 32 ng/mL | concentration at 15 min [1, 2]: 4530 ± 60 ng/mL | concentration at 30 min [1, 2]: 2880 ± 95 ng/mL | concentration at 60 min [1, 2]: 1300 ± 75 ng/mL | concentration at 120 min [1, 2]: 272 ± 9 ng/mL | concentration at 180 min [1, 2]: 51 ± 3 ng/mL | concentration at 240 min [1, 2]: 13 ± 1 ng/mL | concentration at 480 min [1, 2]: 2 ± 1 ng/mL | concentration at 720 min [1, 2]: 3 ± 2 ng/mL | concentration at 1440 min [1, 2]: 2 ± 0.5 ng/mL | AUC [1, 3]: ~4220 ng·h/mL | Cmax [1, 3]: ~6550 ng/mL | Tmax [1, 3]: ~5 min | clearance ([1]; male, Sprague-Dawley, plasma, iv, 5 mg/kg i.v., approximate value, Clearance = Dose/AUC): ~5.6 mL/min | bioavailability ([1]; male, Sprague-Dawley, plasma, oral, 50 mg/kg p.o. vs 5 mg/kg i.v., effects of saturation and accumulation unknown, read-out: ˜Bioavailability (Foral; %)): ~119% | concentration at 5 min [1, 4]: 16000 ± 1720 ng/mL | concentration at 15 min [1, 4]: 16000 ± 933 ng/mL | concentration at 30 min [1, 4]: 13600 ± 1120 ng/mL | concentration at 60 min [1, 4]: 9980 ± 976 ng/mL | concentration at 120 min [1, 4]: 6140 ± 1980 ng/mL | concentration at 180 min [1, 4]: 4180 ± 1640 ng/mL | concentration at 240 min [1, 4]: 2470 ± 792 ng/mL | concentration at 480 min [1, 4]: 2850 ± 755 ng/mL | concentration at 720 min [1, 4]: 536 ± 327 ng/mL | concentration at 1440 min [1, 4]: 9 ± 6 ng/mL | bioavailability ([1]; male, Sprague-Dawley, plasma, oral, 200 mg/kg p.o. vs 5 mg/kg i.v., effects of saturation and accumulation unknown, read-out: ˜Bioavailability (Foral; %)): ~80% | concentration at 5 min [1, 5]: 50300 ± 2640 ng/mL | concentration at 15 min [1, 5]: 41300 ± 3210 ng/mL | concentration at 30 min [1, 5]: 36500 ± 5570 ng/mL | concentration at 60 min [1, 5]: 21600 ± 3790 ng/mL | concentration at 120 min [1, 5]: 11000 ± 2190 ng/mL | concentration at 180 min [1, 5]: 5700 ± 1970 ng/mL | concentration at 240 min [1, 5]: 5840 ± 1440 ng/mL | concentration at 480 min [1, 5]: 2920 ± 343 ng/mL | concentration at 720 min [1, 5]: 1160 ± 360 ng/mL | concentration at 1440 min [1, 5]: 6250 ± 2830 ng/mL | AUC [1, 6]: ~50200 ng·h/mL | Cmax [1, 6]: ~16000 ng/mL | Tmax [1, 6]: ~10 min | half-life ([1]; male, Sprague-Dawley, plasma, po, 50 mg/kg p.o., approximate value, read-out: ˜t1/2): ~150 min | AUC [1, 7]: ~134000 ng·h/mL | Cmax [1, 7]: ~50300 ng/mL | Tmax [1, 7]: ~5 min | half-life ([1]; male, Sprague-Dawley, plasma, po, 200 mg/kg p.o., approximate value, read-out: ˜t1/2): ~90 min | bioavailability ([1]; male, Sprague-Dawley, plasma, po, based on the results of Example 2, read-out: Oral bioavailability): ≤ 80% | Oral absorption ([1]; oral gavage, significant plasma levels at the 5-min time point): rapidly absorbed
